Results: US9980486B2, “Herbicidal quinolines” (Syngenta Participations AG, priority 2014, dated 2018)

What was measured:
Assay in all cases: Experiment B1 glasshouse herbicide test, pre- and post-emergence, percentage damage
Format in all cases: in vivo
Settings in all cases: 1000 g/h, evaluated after 13 days
[1] = system: Solanum nigrum (SOLNI)
Protocol: (§1) Seeds of a variety of test species are sown in standard soil in pots (Lolium perenne (LOLPE), Solanum nigrum (SOLNI), Amaranthus retoflexus (AMARE), Setaria faberi (SETFA), Echinochloa crus-galli (ECHCG), Ipomoea hederacea (IPOHE)). After cultivation for one day (pre-emergence) or after 8 days cultivation (post-emergence) under controlled conditions in a glasshouse (at 24/16° C., day/night; 14 hours light; 65% humidity), the plants are sprayed with an aqueous spray solution derived from the formulation of the technical active ingredient in acetone/water (50:50) solution containing 0.5% Tween 20 (polyoxyethelyene sorbitan monolaurate, CAS RN 9005-64-5). […] The test plants are then grown in a glasshouse under controlled conditions in a glasshouse (at 24/16° C., day/night; 14 hours light; 65% humidity) and watered twice daily. After 13 days for pre and post-emergence, the test is evaluated for the percentage damage caused to the plant. The biological activities are shown in the following table on a five point scale (5=80-100%; 4=60-79%; 3=40-59%; 2=20-39%; 1=0-19%).

[2] = system: Amaranthus retoflexus (AMARE)
Protocol: as §1

[3] = system: Lolium perenne (LOLPE)
Protocol: as §1

[4] = system: Ipomoea hederacea (IPOHE)
Protocol: as §1

[5] = system: Setaria faberi (SETFA)
Protocol: as §1

[6] = system: Echinochloa crus-galli (ECHCG)
Protocol: as §1

[7] = POST Application (post-emergence, after 8 days cultivation)
[8] = PRE Application (pre-emergence, after cultivation for one day)

Row | Compound | percentage damage caused to the plant, five point scale, SOLNI [1, 7] | percentage damage caused to the plant, five point scale, SOLNI [1, 8] | percentage damage caused to the plant, five point scale, AMARE [2, 7] | percentage damage caused to the plant, five point scale, AMARE [2, 8] | percentage damage caused to the plant, five point scale, LOLPE [3, 7] | percentage damage caused to the plant, five point scale, LOLPE [3, 8] | percentage damage caused to the plant, five point scale, IPOHE [4, 7] | percentage damage caused to the plant, five point scale, IPOHE [4, 8] | percentage damage caused to the plant, five point scale, SETFA [5, 7] | percentage damage caused to the plant, five point scale, SETFA [5, 8] | percentage damage caused to the plant, five point scale, ECHCG [6, 7] | percentage damage caused to the plant, five point scale, ECHCG [6, 8]
1 | CCn1nnnc1NC(=O)c1cc2cccnc2c(-c2ccccc2)c1C(F)(F)F [Compound 1.002] | 5 (5=80-100%) | 5 (5=80-100%) | 5 (5=80-100%) | 5 (5=80-100%) | 5 (5=80-100%) | 5 (5=80-100%) | 5 (5=80-100%) | 5 (5=80-100%) | 5 (5=80-100%) | 5 (5=80-100%) | 5 (5=80-100%) | 5 (5=80-100%)
2 | CCCn1nnnc1NC(=O)c1cc2cccnc2c(-c2ccccc2)c1C(F)(F)F [Compound 1.003] | 5 (5=80-100%) | 5 (5=80-100%) | 5 (5=80-100%) | 5 (5=80-100%) | 1 (1=0-19%) | 1 (1=0-19%) | 4 (4=60-79%) | 2 (2=20-39%) | 2 (2=20-39%) | 1 (1=0-19%) | 3 (3=40-59%) | 5 (5=80-100%)
3 | Cn1nnnc1NC(=O)c1cc2cc(F)cnc2c(-c2ccccc2)c1C(F)(F)F [Compound 1.007, 3-fluoro-N-(1-methyltetrazol-5-yl)-8-phenyl-7-(trifluoromethyl)quinoline-6-carboxamide] | 5 (5=80-100%) | 5 (5=80-100%) | 5 (5=80-100%) | 5 (5=80-100%) | 5 (5=80-100%) | 5 (5=80-100%) | 5 (5=80-100%) | 5 (5=80-100%) | 5 (5=80-100%) | 5 (5=80-100%) | 5 (5=80-100%) | 5 (5=80-100%)
4 | COc1c(C(=O)Nc2nnnn2C)cc2cccnc2c1-c1ccccc1 [Compound 1.009, 7-methoxy-N-(1-methyltetrazol-5-yl)-8-phenyl-quinoline-6-carboxamide] | 5 (5=80-100%) | 5 (5=80-100%) | 5 (5=80-100%) | 5 (5=80-100%) | 4 (4=60-79%) | 5 (5=80-100%) | 5 (5=80-100%) | 5 (5=80-100%) | 5 (5=80-100%) | 5 (5=80-100%) | 5 (5=80-100%) | 5 (5=80-100%)
